For experiment [1], the target named is T1, Kinesin-like protein KIF23 (Homo sapiens) (UniProt Q02241).
T1 sequence (whole entry): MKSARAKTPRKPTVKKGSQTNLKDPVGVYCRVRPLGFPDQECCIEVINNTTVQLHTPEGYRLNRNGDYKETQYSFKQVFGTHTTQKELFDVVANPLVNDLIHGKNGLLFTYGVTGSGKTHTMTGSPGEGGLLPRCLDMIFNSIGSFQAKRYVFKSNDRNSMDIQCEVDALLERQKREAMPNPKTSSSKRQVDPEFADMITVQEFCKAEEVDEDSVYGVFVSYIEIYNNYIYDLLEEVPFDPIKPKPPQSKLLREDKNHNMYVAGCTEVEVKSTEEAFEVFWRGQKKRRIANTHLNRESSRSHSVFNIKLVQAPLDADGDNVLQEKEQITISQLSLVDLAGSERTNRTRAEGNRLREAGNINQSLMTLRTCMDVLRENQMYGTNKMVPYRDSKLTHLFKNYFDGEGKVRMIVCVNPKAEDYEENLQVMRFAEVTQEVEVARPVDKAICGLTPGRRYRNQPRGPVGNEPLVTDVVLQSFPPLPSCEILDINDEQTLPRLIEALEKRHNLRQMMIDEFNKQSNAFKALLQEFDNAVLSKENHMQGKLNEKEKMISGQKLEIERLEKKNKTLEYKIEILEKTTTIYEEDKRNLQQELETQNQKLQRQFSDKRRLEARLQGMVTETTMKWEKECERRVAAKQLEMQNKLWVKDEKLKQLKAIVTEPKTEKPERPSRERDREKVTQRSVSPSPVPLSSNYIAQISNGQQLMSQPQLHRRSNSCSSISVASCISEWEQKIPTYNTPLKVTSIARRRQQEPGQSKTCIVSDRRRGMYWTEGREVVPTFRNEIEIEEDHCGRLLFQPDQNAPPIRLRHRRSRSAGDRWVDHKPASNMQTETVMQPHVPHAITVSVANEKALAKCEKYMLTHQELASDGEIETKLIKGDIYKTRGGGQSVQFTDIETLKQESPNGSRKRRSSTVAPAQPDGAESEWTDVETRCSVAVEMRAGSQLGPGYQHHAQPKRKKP
Briefly: Inhibition of MKLP1 at 10 uM by puruvate kinsase-lactate dehydrogenase detection system.

Experiment [2] deals with T2, Kinesin-like protein KIF2C (Homo sapiens) (UniProt Q99661).
T2 sequence (whole entry): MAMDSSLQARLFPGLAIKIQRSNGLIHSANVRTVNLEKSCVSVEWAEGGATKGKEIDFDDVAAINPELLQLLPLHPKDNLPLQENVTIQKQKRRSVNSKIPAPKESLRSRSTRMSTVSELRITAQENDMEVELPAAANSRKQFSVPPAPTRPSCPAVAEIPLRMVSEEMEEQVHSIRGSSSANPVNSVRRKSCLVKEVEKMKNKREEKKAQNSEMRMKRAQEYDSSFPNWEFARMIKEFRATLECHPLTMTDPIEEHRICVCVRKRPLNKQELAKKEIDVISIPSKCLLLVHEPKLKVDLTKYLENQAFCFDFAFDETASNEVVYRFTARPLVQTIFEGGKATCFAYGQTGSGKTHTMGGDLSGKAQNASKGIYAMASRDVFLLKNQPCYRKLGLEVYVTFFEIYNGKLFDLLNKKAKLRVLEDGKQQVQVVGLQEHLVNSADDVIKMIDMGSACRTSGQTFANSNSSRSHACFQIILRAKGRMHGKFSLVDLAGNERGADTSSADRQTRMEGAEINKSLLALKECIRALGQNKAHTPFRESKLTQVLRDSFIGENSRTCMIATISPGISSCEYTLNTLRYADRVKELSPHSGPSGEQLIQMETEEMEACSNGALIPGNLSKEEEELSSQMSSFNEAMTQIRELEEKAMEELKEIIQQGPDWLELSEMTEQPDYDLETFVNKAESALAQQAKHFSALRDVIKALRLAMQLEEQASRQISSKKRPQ
Put plainly: Inhibition of MCAK at 10 uM by puruvate kinsase-lactate dehydrogenase detection system.

In experiment [3] the target is Centromere-associated protein E (Homo sapiens) (UniProt Q02224). Briefly: Inhibition of CENPE at 10 uM by puruvate kinsase-lactate dehydrogenase detection system.
For experiment [4], the target named is Kinesin-like protein KIF1A (Homo sapiens) (UniProt Q12756). Put plainly: Inhibition of Kif1A at 10 uM by puruvate kinsase-lactate dehydrogenase detection system.
In experiment [5] the target is T3, Kinesin-like protein KIF11 (Homo sapiens) (UniProt P52732).
T3 sequence (whole entry): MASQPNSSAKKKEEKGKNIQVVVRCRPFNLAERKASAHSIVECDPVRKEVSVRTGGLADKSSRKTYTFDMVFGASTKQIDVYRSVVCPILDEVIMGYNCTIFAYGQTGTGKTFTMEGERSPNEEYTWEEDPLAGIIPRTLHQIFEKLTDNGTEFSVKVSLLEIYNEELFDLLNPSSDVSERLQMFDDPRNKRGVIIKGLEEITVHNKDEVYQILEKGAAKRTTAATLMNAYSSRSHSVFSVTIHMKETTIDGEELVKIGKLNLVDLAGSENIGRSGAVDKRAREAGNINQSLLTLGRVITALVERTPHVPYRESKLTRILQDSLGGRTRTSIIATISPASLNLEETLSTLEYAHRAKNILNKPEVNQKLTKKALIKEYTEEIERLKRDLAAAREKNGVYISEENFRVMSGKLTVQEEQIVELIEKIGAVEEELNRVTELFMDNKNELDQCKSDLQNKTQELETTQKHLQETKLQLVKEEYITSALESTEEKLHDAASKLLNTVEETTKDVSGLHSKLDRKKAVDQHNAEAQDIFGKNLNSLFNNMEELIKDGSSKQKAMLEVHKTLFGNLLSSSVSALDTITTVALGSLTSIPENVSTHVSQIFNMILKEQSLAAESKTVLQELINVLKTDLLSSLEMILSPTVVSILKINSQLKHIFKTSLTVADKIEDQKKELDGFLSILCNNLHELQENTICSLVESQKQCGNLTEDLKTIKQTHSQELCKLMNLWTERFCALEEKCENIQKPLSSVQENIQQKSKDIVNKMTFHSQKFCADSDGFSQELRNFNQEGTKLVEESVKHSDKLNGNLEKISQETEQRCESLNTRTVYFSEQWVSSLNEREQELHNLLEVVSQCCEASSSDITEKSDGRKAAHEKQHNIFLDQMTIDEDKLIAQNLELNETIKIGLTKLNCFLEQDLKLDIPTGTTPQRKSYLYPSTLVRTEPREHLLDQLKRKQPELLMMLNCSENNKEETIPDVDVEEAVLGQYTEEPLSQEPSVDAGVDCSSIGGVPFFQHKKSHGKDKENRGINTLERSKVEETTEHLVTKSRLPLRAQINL
Briefly: Inhibition of Eg5 at 10 uM by puruvate kinsase-lactate dehydrogenase detection system.

Sequence of Kinesin-like protein KIF1A (Homo sapiens) (Q12756 whole entry): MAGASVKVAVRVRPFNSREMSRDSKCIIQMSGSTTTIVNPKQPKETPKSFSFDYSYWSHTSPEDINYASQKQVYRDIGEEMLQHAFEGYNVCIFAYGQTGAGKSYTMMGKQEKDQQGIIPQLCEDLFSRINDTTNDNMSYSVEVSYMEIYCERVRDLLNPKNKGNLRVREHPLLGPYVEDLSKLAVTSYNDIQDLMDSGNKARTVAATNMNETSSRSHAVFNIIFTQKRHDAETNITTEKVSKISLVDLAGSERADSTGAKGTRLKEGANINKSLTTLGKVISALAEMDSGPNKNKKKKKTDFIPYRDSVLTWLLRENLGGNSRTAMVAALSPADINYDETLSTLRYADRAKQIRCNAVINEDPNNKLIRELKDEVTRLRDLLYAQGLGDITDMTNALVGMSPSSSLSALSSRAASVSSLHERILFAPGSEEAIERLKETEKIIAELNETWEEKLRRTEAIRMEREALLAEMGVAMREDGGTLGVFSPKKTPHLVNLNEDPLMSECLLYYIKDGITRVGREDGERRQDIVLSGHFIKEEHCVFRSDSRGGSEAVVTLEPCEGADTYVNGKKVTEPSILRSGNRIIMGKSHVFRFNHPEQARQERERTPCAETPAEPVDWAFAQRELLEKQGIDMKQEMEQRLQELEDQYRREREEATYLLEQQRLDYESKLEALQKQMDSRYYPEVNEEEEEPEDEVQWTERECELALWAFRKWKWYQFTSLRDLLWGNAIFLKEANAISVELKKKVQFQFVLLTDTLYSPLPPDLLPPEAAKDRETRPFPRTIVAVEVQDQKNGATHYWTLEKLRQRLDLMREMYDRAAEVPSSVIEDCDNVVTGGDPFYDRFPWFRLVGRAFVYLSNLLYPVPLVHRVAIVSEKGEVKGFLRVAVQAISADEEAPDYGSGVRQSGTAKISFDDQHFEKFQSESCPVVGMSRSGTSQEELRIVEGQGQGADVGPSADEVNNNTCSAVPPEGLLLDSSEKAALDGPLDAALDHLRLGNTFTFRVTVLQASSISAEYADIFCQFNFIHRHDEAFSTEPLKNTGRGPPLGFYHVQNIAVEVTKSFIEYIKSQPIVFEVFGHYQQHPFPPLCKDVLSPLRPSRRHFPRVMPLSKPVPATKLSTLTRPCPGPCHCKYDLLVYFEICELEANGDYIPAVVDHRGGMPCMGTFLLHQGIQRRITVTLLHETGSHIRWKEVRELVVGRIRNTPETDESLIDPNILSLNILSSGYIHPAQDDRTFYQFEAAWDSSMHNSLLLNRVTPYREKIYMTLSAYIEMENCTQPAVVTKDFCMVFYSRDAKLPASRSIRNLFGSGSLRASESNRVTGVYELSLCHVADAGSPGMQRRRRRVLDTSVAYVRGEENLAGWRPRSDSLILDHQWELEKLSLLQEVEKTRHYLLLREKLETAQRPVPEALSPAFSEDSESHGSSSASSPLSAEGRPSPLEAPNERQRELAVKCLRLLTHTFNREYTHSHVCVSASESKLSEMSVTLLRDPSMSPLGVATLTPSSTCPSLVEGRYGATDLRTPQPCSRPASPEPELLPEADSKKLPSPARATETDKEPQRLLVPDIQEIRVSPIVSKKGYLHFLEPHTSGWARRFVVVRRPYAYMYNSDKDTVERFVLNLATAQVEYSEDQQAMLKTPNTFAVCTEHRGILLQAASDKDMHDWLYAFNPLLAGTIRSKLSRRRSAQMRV
Sequence of Centromere-associated protein E (Homo sapiens) (Q02224 whole entry): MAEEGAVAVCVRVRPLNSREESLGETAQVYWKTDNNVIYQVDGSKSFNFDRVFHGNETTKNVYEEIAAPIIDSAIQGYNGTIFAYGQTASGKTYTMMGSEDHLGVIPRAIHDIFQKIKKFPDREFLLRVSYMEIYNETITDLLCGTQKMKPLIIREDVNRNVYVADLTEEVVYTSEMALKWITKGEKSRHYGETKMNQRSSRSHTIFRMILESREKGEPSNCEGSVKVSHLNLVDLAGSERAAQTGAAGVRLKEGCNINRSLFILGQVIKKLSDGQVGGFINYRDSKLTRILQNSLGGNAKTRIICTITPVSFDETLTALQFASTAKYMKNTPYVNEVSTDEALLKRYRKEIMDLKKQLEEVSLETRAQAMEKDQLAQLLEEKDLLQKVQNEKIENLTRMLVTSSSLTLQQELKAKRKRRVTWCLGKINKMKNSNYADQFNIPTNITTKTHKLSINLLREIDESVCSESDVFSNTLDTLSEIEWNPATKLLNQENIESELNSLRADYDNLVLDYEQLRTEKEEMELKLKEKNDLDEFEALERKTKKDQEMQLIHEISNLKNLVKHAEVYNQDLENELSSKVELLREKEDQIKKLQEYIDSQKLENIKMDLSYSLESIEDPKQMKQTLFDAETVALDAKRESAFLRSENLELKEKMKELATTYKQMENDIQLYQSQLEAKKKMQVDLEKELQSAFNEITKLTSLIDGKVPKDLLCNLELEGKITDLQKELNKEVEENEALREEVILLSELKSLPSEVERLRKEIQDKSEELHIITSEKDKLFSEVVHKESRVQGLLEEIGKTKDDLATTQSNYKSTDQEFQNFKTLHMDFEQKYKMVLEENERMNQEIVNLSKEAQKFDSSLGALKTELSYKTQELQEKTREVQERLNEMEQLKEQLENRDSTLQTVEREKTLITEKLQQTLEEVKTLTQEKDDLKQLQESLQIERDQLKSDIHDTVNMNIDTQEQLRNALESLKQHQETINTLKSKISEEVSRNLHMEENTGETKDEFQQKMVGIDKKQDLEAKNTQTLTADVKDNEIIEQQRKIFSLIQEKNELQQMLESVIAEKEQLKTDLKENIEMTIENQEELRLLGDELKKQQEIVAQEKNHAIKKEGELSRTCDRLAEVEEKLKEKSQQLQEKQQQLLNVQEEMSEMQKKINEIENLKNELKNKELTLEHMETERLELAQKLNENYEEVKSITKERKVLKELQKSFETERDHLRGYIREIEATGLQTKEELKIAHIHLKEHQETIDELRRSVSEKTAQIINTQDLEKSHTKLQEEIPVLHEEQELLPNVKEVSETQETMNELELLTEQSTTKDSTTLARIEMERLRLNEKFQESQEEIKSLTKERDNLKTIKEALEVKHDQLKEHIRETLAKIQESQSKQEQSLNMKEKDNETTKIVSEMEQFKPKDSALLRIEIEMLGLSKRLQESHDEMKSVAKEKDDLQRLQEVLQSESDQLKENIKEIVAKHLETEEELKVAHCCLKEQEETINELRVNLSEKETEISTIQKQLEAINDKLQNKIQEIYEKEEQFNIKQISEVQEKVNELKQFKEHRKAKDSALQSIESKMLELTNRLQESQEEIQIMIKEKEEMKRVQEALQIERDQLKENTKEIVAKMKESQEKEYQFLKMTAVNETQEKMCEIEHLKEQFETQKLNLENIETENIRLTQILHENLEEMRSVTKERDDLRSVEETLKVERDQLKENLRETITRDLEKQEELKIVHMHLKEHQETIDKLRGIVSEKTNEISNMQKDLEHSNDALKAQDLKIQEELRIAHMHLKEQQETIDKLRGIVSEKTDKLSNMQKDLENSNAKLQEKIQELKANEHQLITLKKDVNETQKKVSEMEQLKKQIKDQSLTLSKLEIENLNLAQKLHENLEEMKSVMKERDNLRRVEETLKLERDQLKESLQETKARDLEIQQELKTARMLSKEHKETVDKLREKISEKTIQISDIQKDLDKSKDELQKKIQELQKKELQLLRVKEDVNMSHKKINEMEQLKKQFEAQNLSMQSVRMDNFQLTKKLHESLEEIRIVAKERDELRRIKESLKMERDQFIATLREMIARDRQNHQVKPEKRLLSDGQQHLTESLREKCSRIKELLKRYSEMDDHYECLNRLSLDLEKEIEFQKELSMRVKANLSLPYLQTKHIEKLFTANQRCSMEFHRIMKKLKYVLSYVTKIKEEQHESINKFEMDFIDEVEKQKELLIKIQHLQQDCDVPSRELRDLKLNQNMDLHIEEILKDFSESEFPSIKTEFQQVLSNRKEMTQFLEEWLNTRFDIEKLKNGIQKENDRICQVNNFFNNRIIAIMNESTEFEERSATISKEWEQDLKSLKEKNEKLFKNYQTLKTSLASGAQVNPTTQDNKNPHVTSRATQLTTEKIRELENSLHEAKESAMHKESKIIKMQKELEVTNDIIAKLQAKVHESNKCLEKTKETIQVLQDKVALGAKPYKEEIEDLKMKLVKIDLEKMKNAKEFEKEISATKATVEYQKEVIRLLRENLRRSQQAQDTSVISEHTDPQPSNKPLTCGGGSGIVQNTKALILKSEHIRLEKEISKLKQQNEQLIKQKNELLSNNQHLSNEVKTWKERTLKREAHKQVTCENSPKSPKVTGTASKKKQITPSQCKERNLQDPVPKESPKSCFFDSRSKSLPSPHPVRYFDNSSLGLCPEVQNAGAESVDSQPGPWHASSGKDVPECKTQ

Regarding `Cc1ccc(C(=O)N(CCCN)[C@@H](c2nc3cc(Cl)ccc3c(=O)n2Cc2ccccc2)C(C)C)cc1`, the inhibition in experiment [1] stood at 7.1%; in experiment [2], 8.2%; in experiment [3], 7%; in experiment [4], 8.2%; in experiment [5], 99.6%.

Regarding `NC(=O)Nc1ccc(-c2ccc(C(F)(F)F)cc2)cc1F`, the inhibition in experiment [1] was determined as 9.4%; in experiment [2], 6.9%; in experiment [3], 11%; in experiment [4], 12.8%; in experiment [5], 99.4%.

Turning to `O=C1CCc2cc(-c3ccc(C(F)(F)F)cc3)ccc2N1`, the inhibition in experiment [1] is 7.7%; in experiment [2], 8.4%; in experiment [3] it was 9%; in experiment [4], 8.9%; in experiment [5] it was 99.3%.

The record behind these values is ChEMBL document CHEMBL1221208, “ATP-competitive inhibitors of the mitotic kinesin KSP that function via an allosteric mechanism” (Nat Chem Biol, 2007).
